How the values were obtained:
MDA-N = assay: NCI human tumor cell panel: MDA-N (Breast Cancer); assay type: cell-based; settings: Breast Cancer
MDA-MB-435 = assay: NCI human tumor cell panel: MDA-MB-435 (Breast Cancer); assay type: cell-based; settings: MDA-MB-435, Breast Cancer
TK-10 = assay: NCI human tumor cell panel: TK-10 (Renal Cancer); assay type: cell-based; settings: TK-10, Renal Cancer
NCI-H460 = assay: NCI human tumor cell panel: NCI-H460 (Non-Small Cell Lung Cancer); assay type: cell-based; settings: NCI-H460, Non-Small Cell Lung Cancer
SF-295 = assay: NCI human tumor cell panel: SF-295 (CNS Cancer); assay type: cell-based; settings: SF-295, CNS Cancer
SK-MEL-2 = assay: NCI human tumor cell panel: SK-MEL-2 (Melanoma); assay type: cell-based; settings: SK-MEL-2, Melanoma
A498 = assay: NCI human tumor cell panel: A498 (Renal Cancer); assay type: cell-based; settings: A498, Renal Cancer
SW-620 = assay: NCI human tumor cell panel: SW-620 (Colon Cancer); assay type: cell-based; settings: SW-620, Colon Cancer
MCF7/ADR-RES = assay: NCI human tumor cell panel: MCF7/ADR-RES (Breast Cancer); assay type: cell-based; settings: Breast Cancer
NCI-H23 = assay: NCI human tumor cell panel: NCI-H23 (Non-Small Cell Lung Cancer); assay type: cell-based; settings: NCI-H23, Non-Small Cell Lung Cancer
MOLT-4 = assay: NCI human tumor cell panel: MOLT-4 (Leukemia); assay type: cell-based; settings: MOLT-4, Leukemia
OVCAR-3 = assay: NCI human tumor cell panel: OVCAR-3 (Ovarian Cancer); assay type: cell-based; settings: OVCAR-3, Ovarian Cancer
OVCAR-8 = assay: NCI human tumor cell panel: OVCAR-8 (Ovarian Cancer); assay type: cell-based; settings: OVCAR-8, Ovarian Cancer
RPMI-8226 = assay: NCI human tumor cell panel: RPMI-8226 (Leukemia); assay type: cell-based; settings: RPMI-8226, Leukemia
HT29 = assay: NCI human tumor cell panel: HT29 (Colon Cancer); assay type: cell-based; settings: HT-29, HT29, Colon Cancer
HCT-116 = assay: NCI human tumor cell panel: HCT-116 (Colon Cancer); assay type: cell-based; settings: HCT-116, Colon Cancer
SNB-75 = assay: NCI human tumor cell panel: SNB-75 (CNS Cancer); assay type: cell-based; settings: SNB-75, CNS Cancer
BT-549 = assay: NCI human tumor cell panel: BT-549 (Breast Cancer); assay type: cell-based; settings: BT-549, Breast Cancer
UO-31 = assay: NCI human tumor cell panel: UO-31 (Renal Cancer); assay type: cell-based; settings: UO-31, Renal Cancer
LOX IMVI = assay: NCI human tumor cell panel: LOX IMVI (Melanoma); assay type: cell-based; settings: Melanoma
A549/ATCC = assay: NCI human tumor cell panel: A549/ATCC (Non-Small Cell Lung Cancer); assay type: cell-based; settings: Non-Small Cell Lung Cancer
SF-539 = assay: NCI human tumor cell panel: SF-539 (CNS Cancer); assay type: cell-based; settings: SF-539, CNS Cancer
NCI-H322M = assay: cells; assay type: cell-based; settings: Homo sapiens, Non-Small Cell Lung Cancer
SK-MEL-28 = assay: NCI human tumor cell panel: SK-MEL-28 (Melanoma); assay type: cell-based; settings: SK-MEL-28, Melanoma
NCI-H522 = assay: NCI human tumor cell panel: NCI-H522 (Non-Small Cell Lung Cancer)
SK-MEL-5 = assay: NCI human tumor cell panel: SK-MEL-5 (Melanoma); assay type: cell-based; settings: SK-MEL-5, Melanoma
IGROV1 = assay: NCI human tumor cell panel: IGROV1 (Ovarian Cancer); assay type: cell-based; settings: IGROV-1, IGROV1, Ovarian Cancer
M14 = assay: NCI human tumor cell panel: M14 (Melanoma); assay type: cell-based; settings: M14, Melanoma
ACHN = assay: NCI human tumor cell panel: ACHN (Renal Cancer); assay type: cell-based; settings: Renal Cancer
U251 = assay: NCI human tumor cell panel: U251 (CNS Cancer); assay type: cell-based; settings: U-251, U251, CNS Cancer
786-0 = assay: NCI human tumor cell panel: 786-0 (Renal Cancer); assay type: cell-based; settings: 786-0, Renal Cancer
EKVX = assay: NCI human tumor cell panel: EKVX (Non-Small Cell Lung Cancer); assay type: cell-based; settings: Non-Small Cell Lung Cancer
[1] = read-out: Log10 GI50 (converted)
[2] = read-out: Log10 TGI (converted)

Which GI50 (MDA-N; [1]) does the source give for `O=Cc1ccc(-c2ccc(-c3ccc(C=O)[se]3)[se]2)[se]1` [NSC 675245] here?
Its GI50 is > 100 µM.

What about the IC (TGI) (MDA-N; [2]) of the same molecule?
Its IC (TGI) is > 100 µM.

And the GI50 (MDA-MB-435; [1])?
The GI50 was > 100 µM.

What about the IC (TGI) (MDA-MB-435; [2]) of the same molecule?
Its IC (TGI) is > 100 µM.

What about the GI50 (TK-10; [1]) of the same molecule?
The GI50 was 0.257 µM.

What about the IC (TGI) (TK-10; [2]) of the same molecule?
Its IC (TGI) is 0.813 µM.

What about the GI50 (NCI-H460; [1]) of the same molecule?
The GI50 was 1.78 µM.

And the IC (TGI) (NCI-H460; [2])?
Its IC (TGI) is > 100 µM.

And the GI50 (SF-295; [1])?
Its GI50 is 49 µM.

And the IC (TGI) (SF-295; [2])?
Its IC (TGI) is > 100 µM.

What about the GI50 (SK-MEL-2; [1]) of the same molecule?
The GI50 was > 100 µM.

What about the IC (TGI) (SK-MEL-2; [2]) of the same molecule?
The IC (TGI) was > 100 µM.

And the GI50 (A498; [1])?
Its GI50 is 0.309 µM.

And the IC (TGI) (A498; [2])?
The IC (TGI) was 0.891 µM.

And the GI50 (SW-620; [1])?
Its GI50 is 4.17 µM.

What about the IC (TGI) (SW-620; [2]) of the same molecule?
The IC (TGI) was > 100 µM.

What about the GI50 (MCF7/ADR-RES; [1]) of the same molecule?
The GI50 was > 100 µM.

And the IC (TGI) (MCF7/ADR-RES; [2])?
Its IC (TGI) is > 100 µM.

What about the GI50 (NCI-H23; [1]) of the same molecule?
Its GI50 is > 100 µM.

What about the IC (TGI) (NCI-H23; [2]) of the same molecule?
The IC (TGI) was > 100 µM.

And the GI50 (MOLT-4; [1])?
Its GI50 is > 100 µM.

And the IC (TGI) (MOLT-4; [2])?
The IC (TGI) was > 100 µM.

And the GI50 (OVCAR-3; [1])?
The GI50 was 0.389 µM.

And the IC (TGI) (OVCAR-3; [2])?
The IC (TGI) was > 100 µM.

What about the GI50 (OVCAR-8; [1]) of the same molecule?
The GI50 was > 100 µM.

What about the IC (TGI) (OVCAR-8; [2]) of the same molecule?
Its IC (TGI) is > 100 µM.

And the GI50 (RPMI-8226; [1])?
Its GI50 is > 100 µM.

What about the IC (TGI) (RPMI-8226; read-out: Log10 TGI) of the same molecule?
Its IC (TGI) is > 100 µM.

And the GI50 (HT29; [1])?
Its GI50 is > 100 µM.

And the IC (TGI) (HT29; [2])?
Its IC (TGI) is > 100 µM.

And the GI50 (HCT-116; [1])?
Its GI50 is 0.692 µM.

What about the IC (TGI) (HCT-116; [2]) of the same molecule?
Its IC (TGI) is > 100 µM.

And the GI50 (SNB-75; [1])?
The GI50 was 10 µM.

And the IC (TGI) (SNB-75; [2])?
The IC (TGI) was > 100 µM.

And the GI50 (BT-549; [1])?
Its GI50 is > 100 µM.

And the IC (TGI) (BT-549; [2])?
The IC (TGI) was > 100 µM.

And the GI50 (UO-31; [1])?
Its GI50 is > 100 µM.

What about the IC (TGI) (UO-31; [2]) of the same molecule?
Its IC (TGI) is > 100 µM.

And the GI50 (LOX IMVI; [1])?
Its GI50 is > 100 µM.

What about the IC (TGI) (LOX IMVI; [2]) of the same molecule?
The IC (TGI) was > 100 µM.

What about the GI50 (A549/ATCC; [1]) of the same molecule?
The GI50 was > 100 µM.

What about the IC (TGI) (A549/ATCC; [2]) of the same molecule?
The IC (TGI) was > 100 µM.

What about the GI50 (SF-539; [1]) of the same molecule?
Its GI50 is > 100 µM.

And the IC (TGI) (SF-539; [2])?
The IC (TGI) was > 100 µM.

What about the GI50 (NCI-H322M; [1]) of the same molecule?
The GI50 was > 100 µM.

And the IC (TGI) (NCI-H322M; [2])?
The IC (TGI) was > 100 µM.

What about the GI50 (SK-MEL-28; [1]) of the same molecule?
The GI50 was > 100 µM.

And the IC (TGI) (SK-MEL-28; [2])?
Its IC (TGI) is > 100 µM.

What about the GI50 (NCI-H522; NCI-H522, read-out: Log10 GI50 (converted)) of the same molecule?
Its GI50 is 21.9 µM.

And the IC (TGI) (NCI-H522; NCI-H522, read-out: Log10 TGI)?
Its IC (TGI) is 45.7 µM.

What about the GI50 (SK-MEL-5; [1]) of the same molecule?
Its GI50 is 72.4 µM.

And the IC (TGI) (SK-MEL-5; [2])?
The IC (TGI) was > 100 µM.

And the GI50 (IGROV1; [1])?
Its GI50 is 67.6 µM.

What about the IC (TGI) (IGROV1; [2]) of the same molecule?
The IC (TGI) was 25.7 µM.

What about the GI50 (M14; [1]) of the same molecule?
The GI50 was > 100 µM.

And the IC (TGI) (M14; [2])?
The IC (TGI) was > 100 µM.

What about the GI50 (ACHN; [1]) of the same molecule?
Its GI50 is 57.5 µM.

What about the IC (TGI) (ACHN; [2]) of the same molecule?
The IC (TGI) was > 100 µM.

And the GI50 (U251; [1])?
The GI50 was 1.05 µM.

What about the IC (TGI) (U251; [2]) of the same molecule?
The IC (TGI) was > 100 µM.

And the GI50 (786-0; [1])?
Its GI50 is 67.6 µM.

And the IC (TGI) (786-0; [2])?
The IC (TGI) was > 100 µM.

And the GI50 (EKVX; [1])?
Its GI50 is > 100 µM.

What about the IC (TGI) (EKVX; [2]) of the same molecule?
The IC (TGI) was > 100 µM.
